Data from PubChem BioAssay AID1919013 (Molecular Pharmacology Branch, DTP, NCI, 2023).
Values joined by “and” are separate entries in the source; they are usually repeats but may differ in a detail not shown here. Equal values may be shown once.

Tested on: LG0703-F498-PDC complex spheroid growth
Assay: Anticancer human tumor LG0703-F498-PDC patient-derived lung adenocarcinoma cell line growth inhibition [AhR]
Settings: for viability, T/C: stronger effect = lower value
Description: Multicellular complex tumor spheroid response to aryl hydrocarbon receptor antagonists in combination with a variety of drugs and investigational agents in selected tumor cell lines
The current study was undertaken to assess response to aryl hydrocarbon receptor antagonists in combination with standard-of-care drugs and investigational agents in solid tumor complex spheroid models. Complex spheroids include a stromal component modeled by human endothelial cells (HUVEC) and fibroblasts modeled by human mesenchymal stem cells (MSCs). The concentration ranges selected for each drug and investigational agent were based upon clinically achievable concentrations if the clinical Cmax of the agent was known.
Compounds. The drugs and investigational agents: BAY 2416964 (NSC825713), GNF351 (NSC835774), CH-223191 (NSC835775), CPI-455 (NSC825282), aza-TdCyd (NSC777586), decitabine (NSC127716), belinostat (NSC758774), entinostat (NSC756642), pevonedistat (NSC761192), tazemetostat (NSC777109), talazoparib (NSC765396), olaparib (NSC753686), selinexor (NSC780203), nedisertib (M3814, NSC802822), bortezomib (NSC756655), venetoclax (NSC766270), doxorubicin (NSC123127), elimusertib (BAY189344, NSC800525), ceralasertib (AZD6738, NSC777638), TAK-243 (NSC785004), alisertib (NSC759677), etoposide (NSC141540), topotecan (NSC609699), eribulin (NSC707389), gemcitabine (NSC613327), carboplatin (NSC241240), cisplatin (NSC119875), and SN-38 (NSC673596) were obtained from the National Cancer Institute (NCI) Developmental Therapeutics Program Chemical Repository (32). The FDA-approved anticancer drug set is available from the Developmental Therapeutics Program at https://dtp.cancer.gov/organization/dscb/obtaining/available plates.htm. […] The stock solutions were prepared in dimethyl sulfoxide (DMSO, Sigma-Aldrich, St. Louis, MO, cat. D2650), except for the platinum compounds which were prepared in saline (Quality Biological, Gaithersburg, MD, cat. 114-055-101), at 800-fold the tested concentration and stored at -70 degrees C prior to their use. All drugs and investigational agents were tested over a range starting from a high concentration at or near the clinical Cmax and decreasing in half-log increments. If the clinical Cmax for an agent had not been determined, the highest concentration tested was 10 microM (Table 1).
Cell Culture. All cells were maintained in an incubator at 37 degrees C and 5% CO2 with 95% humidity. The PDC lines were cultured according to standard operating procedures established by the NCI PDMR (https://pdmr.cancer.gov). Briefly, all PDCs were thawed and cultured in Matrigel-coated flasks prepared with a working solution of 1X Ham's F-12 nutrient mix, without supplementation (Invitrogen, Waltham, MA, cat. 11765054), 100 U/mL penicillin-streptomycin (Invitrogen, cat. 15140122), and 2.5% Matrigel (Corning Inc., Corning, NY, cat. 354248) for the first three passages. All PDCs were cultured in complete DMEM/F-12 media containing advanced DMEM/F-12 (Invitrogen, cat. 12634028), 4.9% defined fetal bovine serum, heat inactivated (HyClone Laboratories Inc., Logan, UT, cat. SH30070.03HI), 389 ng/mL hydrocortisone (Sigma-Aldrich, cat. H4001), 9.7 ng/mL human EGF recombinant protein (Invitrogen, cat. PHG0313), 23.4 microg/mL adenine (Sigma-Aldrich, cat. A2786), 97.3 U/mL penicillin-streptomycin (Invitrogen, cat. 15140122), 1.9 mM L-glutamine (Invitrogen, cat. 25030081), and 9.7 microM Y-27632 dihydrochloride (Tocris Bioscience, Bristol, United Kingdom, cat. 1254). The PDCs were cultured in complete DMEM/F12 media without 10 microM Y-27632 dihydrochloride for at least two passages prior to the screen. The established cell lines NCI-H1341 and […] were cultured in DMEM/F-12, HEPES (Invitrogen, cat. 11330032), 5% defined fetal bovine serum (HyClone Laboratories Inc., cat. SH30070.03), ITS premix universal culture supplement [insulin (5 microg/mL), transferrin (5 microg/mL), and selenious acid (5 ng/mL)] […]

[1] = curve of first compound, second compound 0.1 µM
[2] = curve of first compound, second compound 0.316 µM
[3] = curve of first compound, second compound 1 µM
[4] = curve of first compound, second compound 3.16 µM
[5] = curve of first compound, second compound 10 µM
[6] = second compound 0.1 µM, first compound 0.0316 µM
[7] = second compound 0.1 µM, first compound 0.1 µM
[8] = second compound 0.1 µM, first compound 0.316 µM
[9] = second compound 0.1 µM, first compound 1 µM
[10] = second compound 0.1 µM, first compound 3.16 µM
[11] = second compound 0.1 µM, first compound 10 µM
[12] = second compound 0.316 µM, first compound 0.0316 µM
[13] = second compound 0.316 µM, first compound 0.1 µM
[14] = second compound 0.316 µM, first compound 0.316 µM
[15] = second compound 0.316 µM, first compound 1 µM
[16] = second compound 0.316 µM, first compound 3.16 µM
[17] = second compound 0.316 µM, first compound 10 µM
[18] = second compound 1 µM, first compound 0.0316 µM
[19] = second compound 1 µM, first compound 0.1 µM
[20] = second compound 1 µM, first compound 0.316 µM
[21] = second compound 1 µM, first compound 1 µM
[22] = second compound 1 µM, first compound 3.16 µM
[23] = second compound 1 µM, first compound 10 µM
[24] = second compound 3.16 µM, first compound 0.0316 µM
[25] = second compound 3.16 µM, first compound 0.1 µM
[26] = second compound 3.16 µM, first compound 0.316 µM
[27] = second compound 3.16 µM, first compound 1 µM
[28] = second compound 3.16 µM, first compound 3.16 µM
[29] = second compound 3.16 µM, first compound 10 µM
[30] = second compound 10 µM, first compound 0.0316 µM
[31] = second compound 10 µM, first compound 0.1 µM
[32] = second compound 10 µM, first compound 0.316 µM
[33] = second compound 10 µM, first compound 1 µM
[34] = second compound 10 µM, first compound 3.16 µM
[35] = second compound 10 µM, first compound 10 µM
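Note: luminescence taken as a proxy for viable cell amount.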
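Throughout, for viability, T/C: percent of DMSO vehicle control where 100% means growth equal to vehicle.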

Row | SMILES | IC50 [1] [nM] | IC50 [2] [nM] | IC50 [3] [nM] | IC50 [4] [nM] | IC50 [5] [nM] | viability, T/C [6] [%] | viability, T/C [7] [%] | viability, T/C [8] [%] | viability, T/C [9] [%] | viability, T/C [10] [%] | viability, T/C [11] [%] | viability, T/C [12] [%] | viability, T/C [13] [%] | viability, T/C [14] [%] | viability, T/C [15] [%] | viability, T/C [16] [%] | viability, T/C [17] [%] | viability, T/C [18] [%] | viability, T/C [19] [%] | viability, T/C [20] [%] | further results
1 | NS(=O)(=O)OCC1CC(n2ccc3c(NC4CCc5ccccc54)ncnc32)CC1O (configuration not stated) + CC(CO)NC(=O)c1cc(-c2ccc(Cl)cc2)nn(-c2cnn(C)c2)c1=O | 3600 | 1470 | 882 | 617 | 638 | 94.1 | 99.9 | 81.9 | 71 | 51.7 | 38.3 | 96.4 | 88.9 | 78.9 | 51.7 | 45 | 36.2 | 89 | 76.7 | 65.4 | viability, T/C [21]: 48.6%; viability, T/C [22]: 36.8%; viability, T/C [23]: 38.5%; viability, T/C [24]: 78.4%; viability, T/C [25]: 73.5%; viability, T/C [26]: 60.8%; viability, T/C [27]: 42.5%; viability, T/C [28]: 34.3%; viability, T/C [29]: 34.2%; viability, T/C [30]: 78.5%; viability, T/C [31]: 72.6%; viability, T/C [32]: 60.5%; viability, T/C [33]: 43.4%; viability, T/C [34]: 34.1%; viability, T/C [35]: 31.9%
2 | Nc1ccn(C2OC(CO)C(O)C2(F)F)c(=O)n1 (configuration not stated) + Cc1cncc(-c2nc(NCCc3c[nH]c4ccccc34)c3ncn(C(C)C)c3n2)c1 | < 31.6 | < 31.6 | < 31.6 | < 31.6 | < 31.6 | 40.6 | 36.2 | 31.3 | 28.9 | 28.2 | 18.8 | 39.7 | 37.6 | 35 | 28.1 | 26.4 | 17.9 | 33.5 | 40 | 32.2 | viability, T/C [21]: 28.8%; viability, T/C [22]: 24.1%; viability, T/C [23]: 19.9%; viability, T/C [24]: 24.4%; viability, T/C [25]: 26.7%; viability, T/C [26]: 29.4%; viability, T/C [27]: 19.5%; viability, T/C [28]: 18.1%; viability, T/C [29]: 17.9%; viability, T/C [30]: 0.88%; viability, T/C [31]: 1.65%; viability, T/C [32]: 1.55%; viability, T/C [33]: 1.08%; viability, T/C [34]: 1.14%; viability, T/C [35]: 1.93%
3 | O=C(C=Cc1cccc(S(=O)(=O)Nc2ccccc2)c1)NO + Cc1ccccc1N=Nc1ccc(NC(=O)c2ccnn2C)c(C)c1 | 828 | 809 | 921 | 901 | 1280 | 106 | 123 | 84 | 43.9 | 12.4 | 2.33 | 110 | 99.7 | 81.6 | 42.9 | 13.5 | 2.43 | 122 | 111 | 83.9 | viability, T/C [21]: 50.4%; viability, T/C [22]: 12.6%; viability, T/C [23]: 2.97%; viability, T/C [24]: 97.2%; viability, T/C [25]: 113%; viability, T/C [26]: 86.5%; viability, T/C [27]: 44.8%; viability, T/C [28]: 17.8%; viability, T/C [29]: 2.8%; viability, T/C [30]: 103%; viability, T/C [31]: 101%; viability, T/C [32]: 74.7%; viability, T/C [33]: 60.3%; viability, T/C [34]: 25.9%; viability, T/C [35]: 6.34%
4 | COc1cccc2c1C(=O)c1c(O)c3c(c(O)c1C2=O)CC(O)(C(=O)CO)CC3OC1CC(N)C(O)C(C)O1 (configuration not stated) |  |  |  |  |  |  |  |  |  |  |  |  |  |  |  |  |  |  |  |  | viability, T/C (compound 0.0316 µM): 88% and 108% (2×); viability, T/C (compound 0.1 µM): 82.8% and 79.7% and 87.9%; viability, T/C (compound 0.316 µM): 65.5% and 75.9% and 69.5%; viability, T/C (compound 1 µM): 40.7% and 49.1% and 47.5%; viability, T/C (compound 3.16 µM): 9.35% and 15.7% and 20.4%; viability, T/C (compound 10 µM): 0.71% and 0.83% and 1.09%; IC50 (curve of compound): 628 nM and 828 nM and 812 nM
